Like-named read-outs stand apart in the source and are kept apart here. *: point of attachment. Cbz = O=C(OCc1ccccc1)*; CH2F = FC*
Experiments:
GPX4 = assay: Intracellular GPX4 activity assay in 4T1 cell lysates; type: cell-based, mouse; details: 10 μM, 6 h, t-BuOOH as substrate
Description: 4T1 cells were all seeded in the density of 1 × 10^6 cells per dish in 6-cm dishes for 24 h. Upon completion of incubation with different treatments for 6 h, the cell lysates were collected and quantified by a detergent compatible bradford protein assay kit. The intracellular GPX activity was measured through a cellular glutathione peroxidase assay kit on the basis of the manufacturer’s instructions.

B16 cells [1] = type: cell-based, mouse
Description: (§1) All cells (8 × 10^3 per well) were plated in 96-well plates at 37 °C and 5% CO2 overnight. Then cells were treated with gradient concentrations of NSBSO, NCSBSO, NS or BSO for another 12 h or 24 h. Afterward, cck-8 reagent was added to each well. And the 96-well plates were incubated for another 3 h at 37 °C and followed by determining the absorbance at 450 nm utilizing a microplate reader (Thermo, USA). IC50 values of NSBSO against different cells were conducted using GraphPad Prism 8 software. Additionally, in order to determine the cell cytotoxicity of NSBSO after treatment with various inhibitors or GSH, the cells were pretreated with inhibitors for 24 h or GSH (0, 1, 2.5 and 5 mM) for 12 h before NSBSO treatment. The human breast adenocarcinoma cell line (MCF-7 cells), mouse melanoma cell line (B16 cells), human lung cancer line (A549 cells), mouse breast cancer cell line (4T1 cells), murine colon carcinoma cell line (CT26 cells) and mouse embryonic fibroblast cell line (3T3 cells) were used for research. MCF-7 and 3T3 cells were cultured in DMEM culture medium supplemented with 10% FBS and 1% penicillin/streptomycin (pen/strep) at 37 °C in 5% CO2. B16, A549, 4T1 and CT26 cells were cultured in RPMI Medium 1640 basic supplemented with 10% FBS and 1% penicillin/streptomycin (pen/strep) at 37 °C in 5% CO2.

4T1 cells [2] = type: cell-based, mouse
Description: as §1

4T1 cells [3] = assay: Rescue of NSBSO-induced cell death by inhibitors, 4T1 cells; type: cell-based, mouse
Description: (§2) All cells (8 × 10^3 per well) were plated in 96-well plates at 37 °C and 5% CO2 overnight. Then cells were treated with gradient concentrations of NSBSO, NCSBSO, NS or BSO for another 12 h or 24 h. Afterward, cck-8 reagent was added to each well. And the 96-well plates were incubated for another 3 h at 37 °C and followed by determining the absorbance at 450 nm utilizing a microplate reader (Thermo, USA). IC50 values of NSBSO against different cells were conducted using GraphPad Prism 8 software. Additionally, in order to determine the cell cytotoxicity of NSBSO after treatment with various inhibitors or GSH, the cells were pretreated with inhibitors for 24 h or GSH (0, 1, 2.5 and 5 mM) for 12 h before NSBSO treatment.

B16 cells [4] = assay: Rescue of NSBSO-induced cell death by inhibitors, B16 cells; type: cell-based, mouse; details: inhibitor pretreated 24 h, NSBSO 12 h, cck-8
Description: as §2

MCF-7 cells = type: cell-based, human
Description: as §1

A549 cells = type: cell-based, human
Description: as §1

in vitro = details: serum
CT26 cells = type: cell-based, murine
Description: as §1

3T3 cells = type: cell-based, mouse
Description: as §1

Molecule: CCCCS(=N)(=O)CC[C@H](N)C(=O)O (stereo partly drawn) [BSO, L-buthionine-sulfoximine, reference compound]
- activity of GPX4 (rate of NADPH oxidation, 340 nm) (GPX4): suppressed to varying degrees
- cytotoxicity (B16 cells [1]): did not show obvious cytotoxicity
- cytotoxicity (4T1 cells [2]): did not show obvious cytotoxicity

Molecule: CCOC(=O)c1ccc(NC2CCCCC2)c(N)c1 [Fer-1, ferrostatin-1]
- rescue of NSBSO-induced cell death (4T1 cells [3]; Fer-1 0.5 μM pretreated 24 h before NSBSO treatment, cck-8, n = 4): 42.13%
- rescue of NSBSO-induced cell death (B16 cells [4]): did not markedly alleviate

Molecule: CCCCS(=N)(=O)CC[C@H](NC(=O)[C@H](CC(=O)O)NC(=O)[C@@H](NC(=O)[C@H](CCC(=O)O)NC(=O)[C@H](CC(=O)O)NC(=O)CCC(=O)NCCCCCCNC(=O)[C@H](Cc1ccc(O)cc1)NC(=O)[C@@H](Cc1ccccc1)NC(=O)[C@@H](Cc1ccccc1)NC(=O)Cc1ccc2ccccc2c1)C(C)C)C(=O)O (stereo partly drawn) [NCBSO, Nap-^DF^DFY-HDA-DEVD-BSO]
- cytotoxicity (B16 cells [1]): did not show obvious cytotoxicity
- cytotoxicity (4T1 cells [2]): did not show obvious cytotoxicity

Molecule: CC(C)[C@H](NC(=O)[C@H](CCC(=O)O)NC(=O)[C@H](CC(=O)O)NC(=O)CCC(=O)NCCSSCCNC(=O)[C@H](Cc1ccc(O)cc1)NC(=O)[C@@H](Cc1ccccc1)NC(=O)[C@@H](Cc1ccccc1)NC(=O)Cc1ccc2ccccc2c1)C(=O)N[C@@H](CC(=O)O)C(=O)O [NS, Nap-^DF^DFY-CS-DEVD]
- cytotoxicity (B16 cells [1]): concentration-dependent cytotoxicity
- cytotoxicity (4T1 cells [2]): concentration-dependent cytotoxicity

Molecule: CCCCS(=N)(=O)CC[C@H](NC(=O)[C@H](CC(=O)O)NC(=O)[C@@H](NC(=O)[C@H](CCC(=O)O)NC(=O)[C@H](CC(=O)O)NC(=O)CCC(=O)NCCSSCCNC(=O)[C@H](Cc1ccc(O)cc1)NC(=O)[C@@H](Cc1ccccc1)NC(=O)[C@@H](Cc1ccccc1)NC(=O)Cc1ccc2ccccc2c1)C(C)C)C(=O)O (stereo partly drawn) [NSBSO, Nap-^DF^DFY-CS-DEVD-BSO]
- IC50 (MCF-7 cells; 12 h): 4.43 µM
- IC50 (MCF-7 cells; 24 h): 1.07 µM
- IC50 (A549 cells; 12 h): 7.56 µM
- IC50 (A549 cells; 24 h): 1.22 µM
- remaining at 2 h, 400 μM (in vitro): > 80%
- remaining at 24 h, 400 μM (in vitro): > 50%
- IC50 (CT26 cells; 12 h): > 100 µM
- IC50 (CT26 cells; 24 h): > 100 µM
- cytotoxicity (B16 cells [1]): concentration-dependent cytotoxicity
- IC50 (B16 cells [1]; 12 h): 1.98 µM
- IC50 (B16 cells [1]; 24 h): 0.844 µM
- IC50 (3T3 cells; 12 h): > 100 µM
- IC50 (3T3 cells; 24 h): > 100 µM
- cytotoxicity (4T1 cells [2]): concentration-dependent cytotoxicity
- IC50 (4T1 cells [2]; 12 h): 10.9 µM
- IC50 (4T1 cells [2]; 24 h): 4.74 µM

Molecule: Ac-DEVD-CHO
- rescue of NSBSO-induced cell death (B16 cells [4]): better rescued

Molecule: Cbz-Val-Ala-Asp-CH2F
- rescue of NSBSO-induced cell death (4T1 cells [3]; NSBSO 5 μM, 24 h, cck-8): scarcely rescued

From article PMC9429723, “Hypertoxic self-assembled peptide with dual functions of glutathione depletion and biosynthesis inhibition for selective tumor ferroptosis and pyroptosis” (Journal of Nanobiotechnology, 2022)
